# Test results from US20170029841A1, “METHODS AND COMPOSITIONS FOR SELECTIVE REGULATION OF PROTEIN EXPRESSION” (priority 2015, published 2017).
# System: maize tissue pools (tassel, ear, leaf, root, stem)
# Assay: siRNA profiling microarray assay of mts-siRNA sequences across maize tissues
# Details: for 01DKD2 V8-V9 Tassel relative signal value: germplasm 01DKD2, V8-V9 tassel; for 01DKD2 V10-V12 Tassel relative signal value: germplasm 01DKD2, V10-V12 tassel; for 01DKD2 Other Tissue relative signal value: germplasm 01DKD2, combined signals from other tissue; for LH244 V8-V9 Tassel relative signal value: germplasm LH244, V8-V9 tassel; for LH244 V10-V12 Tassel relative signal value: germplasm LH244, V10-V12 tassel; for LH244 Other Tissue relative signal value: germplasm LH244, combined signals from other tissue
# Procedure: A siRNA profiling microarray assay was performed using μParaflo® Microfluidics chips provided by LC Sciences LLC (Houston, Tex., USA) with 1,200 sequences selected from the thousands of mts-siRNA sequences identified from the differential bioinformatic analysis. The microarray chips contained triplicate probes of the complementary sequence for each of the 1,200 mts-siRNA sequences. Total RNA was purified from 26 maize tissue pools (duplicate or triplicate tissue pools) from either LH244 (ATCC deposit number PTA-1173) or 01DKD2 (I294213) (ATCC deposit number PTA-7859) inbred plants. Each of the 26 RNA samples were hybridized with the microarray chips that contain probes for the 1,200 mts-siRNA. Hybridization images were collected using a GenePix® 4000B laser scanner (Molecular Devices, Sunnyvale, Calif.) and digitized using Array-Pro® Analyzer image analysis software (Media Cybernetics, Rockville, Md.). Relative signal values were derived by background subtraction and normalization. Differentially expressed signals were determined by t-test with p<0.05. From the microarray analysis, about 500 mts-siRNA from the 1,200 were identified as being highly tassel-specific.
# Selected mts-siRNA sequences aligning to one of the six cDNA sequences were used for further microarray analysis to determine differential expression across maize tissues. Microarray analysis for mts-siRNA sequences of normalized signal values for V8-V9 tassel, V10-V12 tassel, or combined signals from the other tissue for maize germplasm LH244 and 01DKD2 is presented in Tables 3-10. […] Signal value results are measured as relative signal values and standard error (p<0.05) is represented by (STDR). […] The mts-siRNA sequence corresponds to the sense or antisense strand of the corresponding mts-siRNA target sequence in the cDNA sequence. The mts-siRNA sequence may have a single nucleotide, a two nucleotide, or a three nucleotide mismatch with the aligned portion of the cDNA sequence, and the mts-siRNA sequence may align to the sense strand or antisense strand of the cDNA sequence. The mts-siRNA sequences provided here are found across different maize germplasms.
Substance,01DKD2 V8-V9 Tassel relative signal value,01DKD2 V10-V12 Tassel relative signal value,01DKD2 Other Tissue relative signal value,LH244 V8-V9 Tassel relative signal value,LH244 V10-V12 Tassel relative signal value,LH244 Other Tissue relative signal value
SEQ ID NO: 56: mts-siRNA sequence aligning to cDNA SEQ ID NO: 20 (TACACAGTGTCGTCCTCTTCGT; expressed or natural sequence),138.5,599.5,19.3,261,692,49.5
SEQ ID NO: 77: mts-siRNA sequence aligning to cDNA SEQ ID NO: 22 (AAGGCAAGAAGGTGCTTGTTGTC; expressed or natural sequence),0.5,225,2.5,180.5,302.7,4.1
SEQ ID NO: 36: mts-siRNA sequence aligning to cDNA SEQ ID NO: 18 (CGTGCATATCGCCATCCTCTGCT; expressed or natural sequence),15.5,1225.5,4.3,906.5,606.7,2.2
SEQ ID NO: 29: mts-siRNA sequence aligning to cDNA SEQ ID NO: 17 (CCGTGCATGGTGATGAATCC; expressed or natural sequence),86,535.5,4,292.5,886.7,2.2
SEQ ID NO: 30: mts-siRNA sequence aligning to cDNA SEQ ID NO: 17 (CACCATGCACGGTCGTCGT; expressed or natural sequence),32,282,6.5,173.5,495.7,4.2
SEQ ID NO: 51: mts-siRNA sequence aligning to cDNA SEQ ID NO: 19 (TGCCGAAGTGTGTCGTGACATTGG; expressed or natural sequence),24.5,275.5,40,158,287,34.3
SEQ ID NO: 33: mts-siRNA sequence aligning to cDNA SEQ ID NO: 18 (AGGGTGAATCGGATGTTGAGGTGG; expressed or natural sequence),4.5,648.5,2.8,111.5,1032.7,17.8
SEQ ID NO: 54: mts-siRNA sequence aligning to cDNA SEQ ID NO: 20 (CATCGTCGTGCAGCTGGT; expressed or natural sequence),56,231,19.5,100.5,172,14.2
SEQ ID NO: 82: mts-siRNA sequence aligning to cDNA SEQ ID NO: 22 (AGGCCTCCCTTCCCTATGGTAGCC; expressed or natural sequence),71.5,211,54.8,95.5,137,217.4
SEQ ID NO: 76: mts-siRNA sequence aligning to cDNA SEQ ID NO: 22 (ACAGTGACTCACCAGTGCATG; expressed or natural sequence),2.5,276.5,4,55,252.3,5.7
SEQ ID NO: 81: mts-siRNA sequence aligning to cDNA SEQ ID NO: 22 (ACCATCAACGACTACAACGGTGAA; expressed or natural sequence),1,320,0,207,470.3,1.6
SEQ ID NO: 46: mts-siRNA sequence aligning to cDNA SEQ ID NO: 19 (CAGCTAATACGACGACCATTTAGG; expressed or natural sequence),252,6778,6.8,4502.5,8663.3,8.4
SEQ ID NO: 53: mts-siRNA sequence aligning to cDNA SEQ ID NO: 20 (CCATGTAATACACAGTGTCGTC; expressed or natural sequence),16,84,1.5,76.5,145,2.2
SEQ ID NO: 52: mts-siRNA sequence aligning to cDNA SEQ ID NO: 19 (CTGATATCTATGCTAATTCAGG; expressed or natural sequence),234,3286.5,3.5,4080,3629.7,5.5
